From ChEMBL document CHEMBL1201862, “PubChem BioAssay data set” (2004) come the findings set out here.

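Following 48 hours of exposure in 96-well plates, responses at five concentrations were used to interpolate endpoints linearly. GI50 marks 50% less growth.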 Activity calls are given as the source filed them. No stated cut-off is given here; in the data, active = GI50 up to about 1.1 µM and inactive = higher.

Holding throughout (assay): DTP human tumour cell line panel, 48 h
Test [1] concerns ACHN.
In test [2] the test system is BT-549.
Test [3] relates to CAKI-1.
Test [4] relates to DU-145.
Test [5] concerns Hs-578T.
Test [6] concerns K562.
Test [7] deals with KM12.
Test [8] deals with LOX IMVI.
In test [9] the test system is MDA-MB-435.
The test system of test [10] is MDA-N.
In test [11] the test system is Malme-3M.
Test [12] deals with OVCAR-3.
The subject of test [13] is SF-295.
The subject of test [14] is SK-MEL-2.
In test [15] the test system is SN12C.
The subject of test [16] is SNB-19.
In test [17] the test system is UACC-62.
Test [18] has as its system NCI-H460.
The test system of test [19] is NCI-H226.

Consider `CC(CN(C)C)C(=O)c1ccccc1C(=O)O` (stereo not given), for which the GI50 in [1] was 35.6 µM (inactive); in test [2], 9.59 µM (inactive); in test [3], 28.2 µM (inactive); in [4], 30.2 µM (inactive); in test [5] it was 11.1 µM (inactive); in [6] it was 30.9 µM (inactive). Also, the GI50 in [7] was 30.5 µM (inactive); in test [8], 33.4 µM (inactive); in test [9], 20.1 µM (inactive); in [10], 29.5 µM (inactive); in test [11] it was 22 µM (inactive); in test [12], 14.7 µM (inactive). The GI50 in test [13] is 41.9 µM (inactive); in [14] it was 15.7 µM (inactive); in test [15], 25.9 µM (inactive); in test [16] it was 39.2 µM (inactive); in [17] it was 20.1 µM (inactive).

With `CCOC(=O)c1nnc2c(C#N)c(-c3ccccc3)c(C)n2c1N`, the GI50 was 29.9 µM (inactive) in test [1]; 40.4 µM (inactive) in test [2]; 52.6 µM (inactive) in [3]; 83.9 µM (inactive) in test [4]; 24.6 µM (inactive) in test [5]; 31.8 µM (inactive) in test [6]. The GI50 in [7] was 30.6 µM (inactive); in test [8], 34.7 µM (inactive); in [9], 32 µM (inactive); in test [10] it was 27 µM (inactive); in [11] it was 20.7 µM (inactive); in test [18] it was 39.8 µM (inactive). Further, the GI50 in test [12] was 29.4 µM (inactive); in [13], 34.1 µM (inactive); in test [14], 42.4 µM (inactive); in [15] it was 37.8 µM (inactive); in test [16], 21.3 µM (inactive); in test [17], 23.9 µM (inactive).

Consider `N#Cc1c(N2CCN(c3ccc([N+](=O)[O-])cc3)CC2)[n+]([O-])c2ccccc2[n+]1[O-]`, for which the GI50 is > 100 µM (inactive) in test [1]; > 100 µM (inactive) in test [2]; > 100 µM (inactive) in test [3]; > 100 µM (inactive) in test [4]; 6.78 µM (inactive) in test [6]; > 100 µM (inactive) in test [7]. The GI50 in [8] is 32.4 µM (inactive); in test [9], > 100 µM (inactive); in test [10] it was > 100 µM (inactive); in [11] it was > 100 µM (inactive); in test [18], > 100 µM (inactive); in [12], > 100 µM (inactive). Also, the GI50 in test [13], in [14], in [15], in test [16] and in test [17] was > 100 µM (inactive) throughout.

`O=C(Cn1nnc(-c2ccccc2)n1)N/N=C/c1cn(Cc2ccc(Cl)cc2Cl)c2ccccc12`: the GI50 in [1], in test [2], in test [3], in test [4], in test [5] and in test [6] was > 100 µM (inactive) throughout. In addition, the GI50 in test [7], in [8], in [9], in [10], in [18] and in test [12] was > 100 µM (inactive) throughout. The GI50 in test [13] is 63.2 µM (inactive); in test [14], > 100 µM (inactive); in [15], > 100 µM (inactive); in test [16] it was > 100 µM (inactive); in test [17], > 100 µM (inactive).

`CC(=O)OC1C2CCC3C(C)(O)C4CC(O)C(C)(C)C4(O)C(O)CC13CC2(C)O` (stereo not given): the GI50 in [1], in test [2], in test [3], in [4], in test [5] and in test [6] was > 100 µM (inactive) in each case. Besides, the GI50 in [7] is > 100 µM (inactive); in [8] it was > 100 µM (inactive); in test [10], > 100 µM (inactive); in [19], > 100 µM (inactive); in test [18], > 10 µM (inactive); in test [12], > 100 µM (inactive). The GI50 in test [13], in test [14], in test [15], in [16] and in test [17] was > 100 µM (inactive) throughout.

In the case of `CC(C)(C)OC(=O)C1/C(=C/CBr)CN1C(=O)OC(C)(C)C` (stereo not given), the GI50 is 16.7 µM (inactive) in test [1]; 16.7 µM (inactive) in [2]; 16.5 µM (inactive) in test [3]; 22 µM (inactive) in test [5]; 2.73 µM (inactive) in test [6]; 3.24 µM (inactive) in test [8]. Besides, the GI50 in test [9] is 12.9 µM (inactive); in [10] it was 14.7 µM (inactive); in [11], 18 µM (inactive); in test [18] it was 16.7 µM (inactive); in [12], 14.7 µM (inactive); in test [13] it was 15.9 µM (inactive). For the same compound, the GI50 in test [14] was > 10 µM (inactive); in test [15], 12.6 µM (inactive); in test [16], 17.6 µM (inactive); in test [17], 15.3 µM (inactive).

Regarding `COC(=O)C1=C(O)C(C(=O)OC)[C@]2(O)[C@H](C(=O)OC)[C@H]1C[C@@H](c1ccc(OC)cc1)[C@H]2C(=O)OC` (stereo not given in full), the GI50 in [1] was 18 µM (inactive); in test [2], 30.8 µM (inactive); in [3] it was 19.5 µM (inactive); in test [5], 19.9 µM (inactive); in test [6], 15.5 µM (inactive); in test [7], 19.5 µM (inactive). Besides, the GI50 was 24.4 µM (inactive) in test [8]; 5.97 µM (inactive) in test [9]; 8.71 µM (inactive) in test [10]; 17.7 µM (inactive) in test [11]; 30.3 µM (inactive) in test [19]; 17.7 µM (inactive) in [18]. For the same compound, the GI50 in test [13] is 44.6 µM (inactive); in [14], 19.8 µM (inactive); in test [15] it was 21.5 µM (inactive); in [16], 29.4 µM (inactive); in test [17], 12.1 µM (inactive).

In the case of `CC1CCCC2=C1C(c1ccc(Cl)cc1)n1c(s/c(=C\c3ccc(Cl)cc3)c1=O)=N2` (stereo not given), the GI50 is > 100 µM (inactive) in [1]; 22.1 µM (inactive) in test [2]; > 100 µM (inactive) in [3]; > 100 µM (inactive) in test [4]; > 100 µM (inactive) in [5]; > 100 µM (inactive) in test [6]. Moreover, the GI50 in test [7], in test [8], in test [9], in test [10], in [14] and in [15] was > 100 µM (inactive) throughout. For the same compound, the GI50 in test [16] and in test [17] was > 100 µM (inactive) in each case.

For `N/C(=N\NC(=O)c1nc2ccccc2s1)c1ccccn1`, the GI50 in test [1] is 2.87 µM (inactive); in test [2], 31.3 µM (inactive); in test [3], 1.55 µM (inactive); in test [4] it was 4.27 µM (inactive); in test [5] it was > 100 µM (inactive); in test [6] it was 4.5 µM (inactive). Moreover, the GI50 in test [7] was 8.79 µM (inactive); in [8] it was 4.93 µM (inactive); in [9], 7.1 µM (inactive); in test [10], 11.7 µM (inactive); in [11] it was 30 µM (inactive); in test [18] it was 2.85 µM (inactive). Further, the GI50 in test [12] was 3.92 µM (inactive); in [13], 3.83 µM (inactive); in test [14], 19.5 µM (inactive); in test [15], 1.61 µM (inactive); in [16] it was 16 µM (inactive); in test [17], 3.95 µM (inactive).

`N#C[BH2-][n+]1cn(C2CC(O)C(COP(=O)(O)OC3CC(n4cnc5c(=O)[nH]c(N)nc54)OC3CO)O2)c2nc(N)[nH]c(=O)c21` (stereo not given): the GI50 in test [1] was > 100 µM (inactive); in test [2], 6.25 µM (inactive); in test [3], > 100 µM (inactive); in test [4], > 100 µM (inactive); in [7], > 100 µM (inactive); in test [9] it was > 100 µM (inactive). The GI50 in [10] was > 100 µM (inactive); in [11], > 100 µM (inactive); in test [19] it was 23.1 µM (inactive); in test [18], > 100 µM (inactive); in test [12] it was > 100 µM (inactive); in [13] it was > 100 µM (inactive). The GI50 in [14], in [15], in [16] and in test [17] was > 100 µM (inactive) throughout.

In the case of `O=C(c1ccccc1)c1c(C(F)(F)F)[n+]([O-])c2ccccc2[n+]1[O-]`, the GI50 in [1] is 1.36 µM (inactive); in test [2] it was 0.476 µM (active); in test [3] it was 0.446 µM (active); in [4], 1.73 µM (inactive); in test [5] it was 3.15 µM (inactive); in test [6], 0.209 µM (active). In addition, the GI50 in test [7] was 0.451 µM (active); in [8] it was 0.291 µM (active); in test [9], 0.798 µM (active); in [11], 2 µM (inactive); in test [19], 1.51 µM (inactive); in [18], 0.855 µM (active). For the same compound, the GI50 in test [12] was 0.343 µM (active); in [13], 1.36 µM (inactive); in test [14], 1.5 µM (inactive); in [15], 0.951 µM (active); in test [16] it was 1.44 µM (inactive); in test [17], 1.68 µM (inactive).

One may read the GI50 as the concentration at which growth is held to half of that of the control.
